# Measured values: ChEMBL document CHEMBL4433195, “Biphenyloxy-alkyl-piperidine and azepane derivatives as histamine H3 receptor ligands” (Bioorg Med Chem, 2017)
# Tests used:
# [1] = target: Histamine H1 receptor (Cavia porcellus, UniProt P31389); assay: (§1) Antagonist activity at histamine H1 receptor in guinea-pig ileum assessed as inhibition of histamine-induced contractions incubated for 15 mins; format: tissue-based; conditions: read-out: pA2 (converted)
# [2] = target: T1, Histamine H3 receptor (Homo sapiens, UniProt Q9Y5N1); assay: Binding affinity to human H3R expressed in rat C6 cells; format: cell-based
# T1 sequence (Q9Y5N1 whole entry): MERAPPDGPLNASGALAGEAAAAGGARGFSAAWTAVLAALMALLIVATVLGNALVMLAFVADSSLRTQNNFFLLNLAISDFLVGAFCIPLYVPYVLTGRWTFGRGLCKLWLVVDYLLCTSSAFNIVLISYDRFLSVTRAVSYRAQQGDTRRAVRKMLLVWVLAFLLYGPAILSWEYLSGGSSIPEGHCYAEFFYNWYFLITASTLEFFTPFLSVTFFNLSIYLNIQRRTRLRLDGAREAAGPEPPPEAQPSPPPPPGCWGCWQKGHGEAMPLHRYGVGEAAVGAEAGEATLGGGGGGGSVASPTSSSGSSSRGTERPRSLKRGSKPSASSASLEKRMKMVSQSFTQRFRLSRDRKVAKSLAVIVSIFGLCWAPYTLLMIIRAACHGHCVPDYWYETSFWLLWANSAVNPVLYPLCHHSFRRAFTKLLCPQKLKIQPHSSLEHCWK
# [3] = target: T2, Histamine H4 receptor (Homo sapiens, UniProt Q9H3N8); assay: Binding affinity to human H4R
# T2 sequence (Q9H3N8 whole entry): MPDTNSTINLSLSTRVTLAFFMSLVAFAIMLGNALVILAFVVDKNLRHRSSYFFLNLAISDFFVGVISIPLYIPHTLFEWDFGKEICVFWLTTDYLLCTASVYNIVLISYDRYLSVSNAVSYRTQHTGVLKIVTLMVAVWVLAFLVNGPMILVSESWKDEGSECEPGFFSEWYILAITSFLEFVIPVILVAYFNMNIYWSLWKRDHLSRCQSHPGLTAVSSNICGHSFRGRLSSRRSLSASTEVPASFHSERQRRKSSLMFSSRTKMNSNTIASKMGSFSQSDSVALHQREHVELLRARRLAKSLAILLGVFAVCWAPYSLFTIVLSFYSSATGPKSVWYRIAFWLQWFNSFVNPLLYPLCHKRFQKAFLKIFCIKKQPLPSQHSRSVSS
# [4] = target: T1, Histamine H3 receptor; assay: Displacement of [3H]-N-alpha-methylhistamine from human recombinant full length H3R expressed in HEK293 cell membranes incubated for 90 mins by liquid scintillation counting method
# [5] = system: Rattus norvegicus; assay: Reversal of RAMH-induced dipsogenia in Wistar rat (Krf:(WI) WU) assessed as inhibition of RAMH-induced drinking response at 1.25 mg/kg, ip pretreated for 30 mins followed by RAMH stimulation for 20 mins and measured for 30 mins; format: functional
# [6] = target: T3, Voltage-gated inwardly rectifying potassium channel KCNH2 (Homo sapiens, UniProt Q12809)
# T3 sequence (Q12809 whole entry): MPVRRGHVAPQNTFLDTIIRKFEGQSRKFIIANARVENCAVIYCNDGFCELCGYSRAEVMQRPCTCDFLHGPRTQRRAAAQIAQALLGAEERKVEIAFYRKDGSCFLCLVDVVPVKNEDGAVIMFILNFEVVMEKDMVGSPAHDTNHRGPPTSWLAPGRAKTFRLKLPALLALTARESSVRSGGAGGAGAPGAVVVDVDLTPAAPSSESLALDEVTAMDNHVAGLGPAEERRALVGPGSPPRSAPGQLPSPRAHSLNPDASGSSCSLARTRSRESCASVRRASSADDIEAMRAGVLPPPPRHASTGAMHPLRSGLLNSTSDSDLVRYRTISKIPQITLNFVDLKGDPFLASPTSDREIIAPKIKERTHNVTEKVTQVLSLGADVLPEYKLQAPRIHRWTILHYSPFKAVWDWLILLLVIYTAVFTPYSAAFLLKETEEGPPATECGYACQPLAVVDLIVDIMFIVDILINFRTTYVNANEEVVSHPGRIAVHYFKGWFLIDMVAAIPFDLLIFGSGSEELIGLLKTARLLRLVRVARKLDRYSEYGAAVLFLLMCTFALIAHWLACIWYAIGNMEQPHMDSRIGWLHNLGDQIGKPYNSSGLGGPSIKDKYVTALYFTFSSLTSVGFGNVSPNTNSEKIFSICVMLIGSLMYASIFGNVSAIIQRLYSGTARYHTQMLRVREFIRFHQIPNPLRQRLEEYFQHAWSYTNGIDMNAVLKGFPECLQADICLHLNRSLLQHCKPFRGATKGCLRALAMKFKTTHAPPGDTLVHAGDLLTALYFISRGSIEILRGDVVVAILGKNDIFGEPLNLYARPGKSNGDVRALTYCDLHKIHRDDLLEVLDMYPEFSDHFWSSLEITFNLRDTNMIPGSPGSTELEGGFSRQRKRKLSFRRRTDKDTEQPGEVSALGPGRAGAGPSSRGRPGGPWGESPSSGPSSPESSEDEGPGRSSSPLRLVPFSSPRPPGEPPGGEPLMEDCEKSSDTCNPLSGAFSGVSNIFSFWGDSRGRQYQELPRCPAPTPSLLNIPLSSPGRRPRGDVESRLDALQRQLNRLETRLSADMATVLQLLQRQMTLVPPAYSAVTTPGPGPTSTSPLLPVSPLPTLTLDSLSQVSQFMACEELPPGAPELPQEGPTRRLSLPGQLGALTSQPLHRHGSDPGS
# [7] = Metabolic stability in rat liver microsomes assessed as retention time at 50 uM preincubated for 5 mins followed by NADPH addition and measured after 30 mins UPLC-MS analysis; format: ADME, Microsome; conditions: 0.5 h
# [8] = Metabolic stability in rat liver microsomes assessed as metabolite M1 formation at 50 uM preincubated for 5 mins followed by NADPH addition and measured after 30 mins UPLC-MS analysis; format: ADME, Microsome; conditions: 0.5 h
# [9] = Metabolic stability in rat liver microsomes assessed as metabolite M2 formation at 50 uM preincubated for 5 mins followed by NADPH addition and measured after 30 mins UPLC-MS analysis; format: ADME, Microsome; conditions: 0.5 h
# [10] = Metabolic stability in human recombinant liver microsomes assessed as metabolite M2 formation at 50 uM preincubated for 5 mins followed by NADPH addition and measured after 120 mins by UPLC-MS analysis; format: ADME, Microsome; conditions: 2 h
# [11] = Intrinsic clearance in rat liver microsomes measured up to 30 mins; format: ADME, Microsome; conditions: read-out: CLH
# [12] = target: Muscarinic acetylcholine receptor M3 (Cavia porcellus) (UniProt Q8VH26); assay: Antagonist activity at muscarinic M3 receptor in guinea-pig ileum assessed as inhibition of carbachol-induced contractions incubated for 15 mins; format: tissue-based
# Chain of Muscarinic acetylcholine receptor M3 (Cavia porcellus) (Q8VH26 1-587): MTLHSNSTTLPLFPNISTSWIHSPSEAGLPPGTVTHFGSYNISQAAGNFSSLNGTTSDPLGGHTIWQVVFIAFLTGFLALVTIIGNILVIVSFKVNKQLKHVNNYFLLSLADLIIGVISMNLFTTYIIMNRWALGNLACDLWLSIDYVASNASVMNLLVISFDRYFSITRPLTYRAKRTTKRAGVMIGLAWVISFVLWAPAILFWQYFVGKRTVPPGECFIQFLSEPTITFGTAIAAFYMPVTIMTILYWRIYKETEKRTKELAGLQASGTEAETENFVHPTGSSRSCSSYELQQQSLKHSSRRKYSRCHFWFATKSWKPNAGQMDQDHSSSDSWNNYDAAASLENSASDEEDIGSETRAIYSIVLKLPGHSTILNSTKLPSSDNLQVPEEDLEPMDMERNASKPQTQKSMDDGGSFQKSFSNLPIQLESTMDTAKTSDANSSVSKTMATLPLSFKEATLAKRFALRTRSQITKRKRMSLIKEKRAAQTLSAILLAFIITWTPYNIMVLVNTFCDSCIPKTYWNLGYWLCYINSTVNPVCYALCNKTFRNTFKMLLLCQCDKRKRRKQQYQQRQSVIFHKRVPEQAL
# [13] = Half life in rat liver microsomes measured up to 30 mins; format: ADME, Microsome
# [14] = target: Histamine H1 receptor (Homo sapiens, UniProt P35367); assay: Displacement of [3H]pyrilamine from human H1 receptor expressed in CHOK1 cells incubated for 60 mins by microbeta scintillation counter method; format: cell-based
# Chain of Histamine H1 receptor (Homo sapiens, UniProt P35367) (P35367 whole entry): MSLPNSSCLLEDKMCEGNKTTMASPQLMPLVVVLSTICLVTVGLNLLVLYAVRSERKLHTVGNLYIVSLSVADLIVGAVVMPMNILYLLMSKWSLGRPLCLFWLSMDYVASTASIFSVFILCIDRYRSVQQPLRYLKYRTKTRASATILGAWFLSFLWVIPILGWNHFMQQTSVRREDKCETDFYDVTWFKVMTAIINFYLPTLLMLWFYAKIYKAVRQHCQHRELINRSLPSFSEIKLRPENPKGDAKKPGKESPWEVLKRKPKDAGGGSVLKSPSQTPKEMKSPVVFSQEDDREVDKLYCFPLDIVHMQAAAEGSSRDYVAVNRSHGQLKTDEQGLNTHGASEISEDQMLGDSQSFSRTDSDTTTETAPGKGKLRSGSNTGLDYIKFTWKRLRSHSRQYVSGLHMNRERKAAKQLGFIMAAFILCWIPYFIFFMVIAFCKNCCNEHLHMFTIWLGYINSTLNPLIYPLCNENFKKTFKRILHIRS
# [15] = target: T4, Cytochrome P450 3A4 (Homo sapiens, UniProt P08684); assay: Activation of human recombinant CYP3A4 using luciferin as substrate at 12.5 to 25 uM preincubated for 10 mins followed by substrate addition and measured after 50 mins in presence of NADPH by CYP450-Glo assay; format: ADME; conditions: recombinant enzyme
# T4 sequence (P08684 whole entry): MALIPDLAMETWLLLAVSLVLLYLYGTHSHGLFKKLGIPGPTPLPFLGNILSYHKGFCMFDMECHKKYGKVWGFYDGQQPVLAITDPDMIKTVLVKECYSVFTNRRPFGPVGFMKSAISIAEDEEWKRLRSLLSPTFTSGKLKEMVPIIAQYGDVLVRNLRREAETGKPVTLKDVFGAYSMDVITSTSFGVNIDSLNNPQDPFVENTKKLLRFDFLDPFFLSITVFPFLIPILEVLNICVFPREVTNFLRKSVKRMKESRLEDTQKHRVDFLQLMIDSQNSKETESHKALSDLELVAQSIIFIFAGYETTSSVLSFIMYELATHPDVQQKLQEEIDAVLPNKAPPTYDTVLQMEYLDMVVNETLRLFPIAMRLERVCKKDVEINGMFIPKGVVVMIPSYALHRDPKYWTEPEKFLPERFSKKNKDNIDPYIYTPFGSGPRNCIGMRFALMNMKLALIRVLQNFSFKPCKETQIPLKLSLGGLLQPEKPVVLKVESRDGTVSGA
# [16] = target: Cytochrome P450 2D6 (Homo sapiens, UniProt P10635); assay: Inhibition of human recombinant CYP2D6 at >2.5 uM using luciferin as substrate preincubated for 10 mins followed by substrate addition and measured after 50 mins in presence of NADPH by CYP450-Glo assay; format: ADME; conditions: recombinant enzyme
# Chain of Cytochrome P450 2D6 (P10635 whole entry): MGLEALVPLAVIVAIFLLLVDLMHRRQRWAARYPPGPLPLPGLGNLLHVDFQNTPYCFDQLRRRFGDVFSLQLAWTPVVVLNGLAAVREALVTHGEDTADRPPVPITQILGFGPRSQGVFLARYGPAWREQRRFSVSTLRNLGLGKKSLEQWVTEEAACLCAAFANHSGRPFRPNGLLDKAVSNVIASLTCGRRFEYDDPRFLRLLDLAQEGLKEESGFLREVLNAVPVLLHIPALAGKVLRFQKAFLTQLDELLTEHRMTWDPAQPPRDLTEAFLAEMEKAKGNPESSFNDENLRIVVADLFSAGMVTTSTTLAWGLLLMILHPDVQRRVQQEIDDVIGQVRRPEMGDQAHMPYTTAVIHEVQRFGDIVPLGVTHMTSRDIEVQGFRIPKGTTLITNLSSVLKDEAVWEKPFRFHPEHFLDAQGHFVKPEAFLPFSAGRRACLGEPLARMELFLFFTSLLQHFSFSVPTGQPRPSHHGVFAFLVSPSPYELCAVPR
# [17] = Metabolic stability in human recombinant liver microsomes assessed as retention time at 50 uM preincubated for 5 mins followed by NADPH addition and measured after 120 mins by UPLC-MS analysis; format: ADME, Microsome; conditions: 2 h
# [18] = target: T2, Histamine H4 receptor; assay: Displacement of [3H]histamine from human recombinant H4R expressed in CHO cells incubated for 60 mins by microbeta scintillation counter method; format: cell-based
# [19] = Metabolic stability in human recombinant liver microsomes assessed as metabolite M formation at 50 uM preincubated for 5 mins followed by NADPH addition and measured after 120 mins by UPLC-MS analysis; format: ADME, Microsome; conditions: 2 h
# [20] = Metabolic stability in human recombinant liver microsomes assessed as metabolite M1 formation at 50 uM preincubated for 5 mins followed by NADPH addition and measured after 120 mins by UPLC-MS analysis; format: ADME, Microsome; conditions: 2 h
# [21] = target: T4, Cytochrome P450 3A4; assay: Inhibition of human recombinant CYP3A4 using luciferin as substrate at 0.025 to 25 uM preincubated for 10 mins followed by substrate addition and measured after 50 mins in presence of NADPH by CYP450-Glo assay; format: ADME; conditions: recombinant enzyme
# [22] = Metabolic stability in human recombinant liver microsomes assessed as metabolite M3 formation at 50 uM preincubated for 5 mins followed by NADPH addition and measured after 120 mins by UPLC-MS analysis; format: ADME, Microsome; conditions: 2 h
# [23] = Metabolic stability in rat liver microsomes assessed as metabolite M3 formation at 50 uM preincubated for 5 mins followed by NADPH addition and measured after 30 mins UPLC-MS analysis; format: ADME, Microsome; conditions: 0.5 h
# [24] = target: T1, Histamine H3 receptor; assay: Antagonist activity at human H3R expressed in HEK293 cells assessed as reduction in R)(-)-alpha methylhistamine-induced inhibition of forskolin-induced cAMP accumulation by TR-FRET based LANCE ultra cAMP immunoassay; format: functional, cell-based
# [25] = target: Histamine H1 receptor (Cavia porcellus) (UniProt P31389); assay: as §1; format: tissue-based
# Chain of Histamine H1 receptor (Cavia porcellus) (P31389 whole entry): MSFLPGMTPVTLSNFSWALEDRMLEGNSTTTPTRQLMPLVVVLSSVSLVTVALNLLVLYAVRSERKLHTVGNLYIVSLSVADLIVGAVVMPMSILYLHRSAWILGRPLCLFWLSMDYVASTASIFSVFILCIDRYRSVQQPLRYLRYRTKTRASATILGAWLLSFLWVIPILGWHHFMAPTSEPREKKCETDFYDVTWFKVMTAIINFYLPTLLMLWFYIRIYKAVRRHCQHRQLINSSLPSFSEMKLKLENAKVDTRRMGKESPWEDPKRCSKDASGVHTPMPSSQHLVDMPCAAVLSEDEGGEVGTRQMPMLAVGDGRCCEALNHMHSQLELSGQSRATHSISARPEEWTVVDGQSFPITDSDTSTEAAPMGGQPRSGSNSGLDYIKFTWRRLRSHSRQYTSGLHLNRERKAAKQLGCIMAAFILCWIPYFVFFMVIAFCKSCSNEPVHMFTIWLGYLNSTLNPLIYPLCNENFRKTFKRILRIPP
# [26] = organism: Rattus norvegicus; assay: Reversal of RAMH-induced dipsogenia in Wistar rat (Krf:(WI) WU) assessed as inhibition of RAMH-induced drinking response pretreated for 30 mins followed by RAMH stimulation for 20 mins and measured for 30 mins; format: functional
# [27] = target: T3, Voltage-gated inwardly rectifying potassium channel KCNH2; assay: Displacement of [3H]Dofetilide from human ERG human expressed in HEK293 cells incubated for 45 mins; format: cell-based
# [28] = target: T2, Histamine H4 receptor; assay: Antagonist activity at human H4R expressed in HEK293 cells incubated for 20 mins by [35S]GTPgammaS binding assay; format: functional, cell-based
# [29] = target: T1, Histamine H3 receptor; assay: Binding affinity to human H3R
# [30] = Mutagenicity in Salmonella typhimurium TA98 assessed as fold increase in number of positive wells over the solvent control baseline upto 10 uM incuabted for 90 mins and measured after 48 hrs by Ames test; format: toxicity; conditions: salmonella enterica subsp. enterica serovar typhimurium
# [31] = Ratio of test compound IC50 to doxorubicin IC50 for cytotoxicity against human HepG2 cells assessed as cell viability incubated for 72 hrs by cellTiter 96 AQueous non-radioactive cell proliferation assay; format: cell-based; conditions: read-out: Ratio IC50
# [32] = system: HepG2; assay: Cytotoxicity against human HepG2 cells assessed as cell viability incubated for 72 hrs by cellTiter 96 AQueous non-radioactive cell proliferation assay; format: cell-based; conditions: HepG2, 72 h
# [33] = Mutagenicity in Salmonella typhimurium TA100 assessed as fold increase in number of positive wells over the solvent control baseline upto 10 uM incuabted for 90 mins and measured after 48 hrs by Ames test; format: toxicity; conditions: salmonella enterica subsp. enterica serovar typhimurium
# [34] = organism: Homo sapiens; assay: Selectivity ratio of Ki for human H4R to Ki for human H3R
# Chain of Histamine H1 receptor (Cavia porcellus, UniProt P31389) (P31389 whole entry): as above
smiles,measurement,setting,value
c1ccc(CN(CC2=NCCN2)c2ccccc2)cc1 [ANTAZOLINE],Kb,[1],72.4 nM
C[C@@H]1CC[C@@H](C)N1CCCOc1ccc(-c2ccc(C(=O)N3CCOCC3)cc2)cc1,Ki,[2],0.42 nM
same,Ki,[3],> 10000 nM
c1ccc(-c2ccc(OCCCCCCN3CCCCCC3)cc2)cc1,Ki,[4],151 nM
c1ccc(-c2cccc(OCCCCCN3CCCCC3)c2)cc1,Ki,[4],76 nM
Clc1ccc(CCCOCCCN2CCCCC2)cc1 [PITOLISANT],inhibition in vivo at 1.25 mg/kg,[5],87%
same,IC50,[6],1700 nM
c1ccc(-c2cccc(OCCCCCCN3CCCCCC3)c2)cc1,Ki,[4],18 nM
O=C(O)C(=O)O.c1ccc(-c2ccc(OCCCCCN3CCCCCC3)cc2)cc1,Retention_time,[7],6 min
same,Drug metabolism,[8],Metabolite_Detected
same,Drug metabolism,[9],Metabolite_Detected
same,Drug metabolism,[10],Metabolite_Detected
same,CLint scaled,[11],52.9 mL/min/kg
same,pKb,[12],6.16
same,half-life,[13],23.6 min
same,Ki,[14],1270 nM
same,Activity,[15],Active
same,inhibition (INH),[16],Active
same,Retention_time,[17],6.08 min
same,Ki,[18],21800 nM
same,Ki,[4],34 nM
same,Drug metabolism,[19],Metabolite_Detected
same,Drug metabolism,[20],Metabolite_Detected
same,inhibition (INH),[21],Not Active
same,Drug metabolism,[22],Metabolite_Detected
same,Drug metabolism,[23],Metabolite_Detected
same,Activity,[24],Dose-dependent effect
same,IC50,[24],9.08 nM
same,Activity,[25],Dose-dependent effect
same,Kb,[1],724 nM
same,ED50,[26],1.75 mg/kg
same,inhibition,[26],Dose-dependent effect
CN1C[C@H]2CCN(c3ccc(-c4ccc(-n5ncccc5=O)cc4)cc3)[C@H]2C1,Ki,[27],8830 nM
same,Ki,[28],> 10000 nM
CC1CCN(CCCCCOc2cccc(-c3ccccc3)c2)CC1,Ki,[4],157 nM
c1ccc(-c2cccc(OCCCCCCN3CCCCC3)c2)cc1,Ki,[4],122 nM
CC1CCN(CCCCCOc2ccc(-c3ccccc3)cc2)CC1,Ki,[4],89 nM
c1ccc(-c2cccc(OCCCCCN3CCCCCC3)c2)cc1,Ki,[4],115 nM
CC1CCN(CCCCCCOc2cccc(-c3ccccc3)c2)CC1,Ki,[4],159 nM
CN1[C@@H]2CC[C@H]1C[C@@H](OC(=O)C(CO)c1ccccc1)C2 (stereo partly drawn),pKb,[12],8.99
C[C@@H]1CCCN1[C@H]1C[C@H](c2ccc(-c3ccc(C#N)cc3)cc2)C1,Ki,[29],0.17 nM
CC(C)(C)c1ccc(OCCCN2CCCCC2)cc1,Ki,[4],131 nM
O=C(O)C(=O)O.c1ccc(-c2ccc(OCCCCCN3CCCCC3)cc2)cc1,fold change (FC),[30],< 2
same,Drug metabolism,[10],Metabolite_Notdetected
same,pKb,[12],6.35
same,Activity,[15],Active
same,inhibition (INH),[16],Active
same,Retention_time,[17],5.83 min
same,Ki,[18],19900 nM
same,Ki,[4],25 nM
same,Drug metabolism,[19],Metabolite_Notdetected
same,Drug metabolism,[20],Metabolite_Notdetected
same,inhibition (INH),[21],Not Active
same,selectivity ratio at 72 h,[31],> 30
same,Drug metabolism,[22],Metabolite_Notdetected
same,Activity,[24],Dose-dependent effect
same,IC50,[24],4.04 nM
same,IC50,[32],17200 nM
same,Activity,[25],Dose-dependent effect
same,Kb,[1],295 nM
same,ED50,[26],2.72 mg/kg
same,inhibition,[26],Dose-dependent effect
same,fold change (FC),[33],< 2
same,IC50,[6],1750 nM
same,Ratio Ki,[34],600
COc1cccc2c1C(=O)c1c(O)c3c(c(O)c1C2=O)C[C@@](O)(C(=O)CO)C[C@@H]3O[C@H]1C[C@H](N)[C@H](O)[C@H](C)O1 [DOXORUBICIN],IC50,[32],392 nM
c1ccc(-c2ccc(OCCCCCCN3CCCCC3)cc2)cc1,Ki,[4],92 nM
CC1CCN(CCCCCCOc2ccc(-c3ccccc3)cc2)CC1,Ki,[4],266 nM
